Laboratory results as given in patent US9650365B2 (UNIVERSITY OF CONNECTICUT, priority 2014, dated 2017).
Where “and” joins values, the source holds several entries; their conditions need not be identical. Equal entries are not always repeated. Where two headings read alike, the source gives them in different places.

Columns and labels:
[1] = system: Hh signaling (Gli1 mRNA) in MERP MB cells; assay: Down-regulation of Gli1 mRNA in MERP MB cells; format: cell-based, mice; settings: Mus musculus; 48 hr incubation
Experimental: General Information. Protocols for general cell culture, qPCR and Hh inhibition in C3H10T1/2 and ASZ cells are as previously described.^28 Protocols for the initiation and growth of Math1-Cre-ER; Ptc^fl/fl medulloblastoma tumors, isolation and in vitro culture of MERP MB cells, as wells as the anti-proliferation and qPCR studies performed in these cells were as previously described.^a Sonic Hedgehog (C25II) recombinant mouse protein was purchased from Life Technologies. aData was analyzed using GraphPad Prism 5 and reported values represent mean±SEM for at least two separate experiments performed in triplicate.

tube formation in HUVECs = assay: HUVEC tube formation on Matrigel; format: cell-based, human
Source text: In vivo angiogenesis is dependent on endothelial cell proliferation; therefore, the inhibition of HUVEC proliferation is commonly utilized as an early stage in vitro model of anti-angiogenic activity. […] Under normal conditions, HUVECs plated and grown on Matrigel migrate towards each other, align, and form tubes that resemble in vivo capillary beds. This assay is generally considered a more robust model of angiogenesis as it requires several aspects of proper vessel formation, including adhesion, migration, and tube formation.
Tube Formation Assay. Matrigel (BD Biosciences) is diluted with DMEM to 3 mg/ml and used to coat the wells of a 24-well tissue culture dish. Plates are incubated at room temperature for 30 min until the matrigel solidifies. HUVECs are suspended in M199 media with 1% FBS and penicillin/streptomycin and 40,000 cells are added to each well. Plates are incubated at 37° C. for 1 h to allow HUVECs to attach to the matrigel. […] Phase contrast images of each well (3/well) are taken on an inverted microscope and quantified using Image J software (NIH).
Tube Formation Assay. Matrigel (BD Biosciences) was diluted 1:1 with DMEM (matrigel protein concentration no less than 3 mg/ml) and used to coat the wells of a 24-well tissue culture dish (280 uL per well). Plates were incubated at 37° C. for no more than 1 h until the matrigel solidified. HUVECs were suspended in M199 media with 1% FBS and penicillin/streptomycin and 50,000 cells were added to each well. Plates were incubated at 37° C. for 20-30 min to allow HUVECs to attach to the matrigel. Cells were treated with control (DMSO), known angiogenic inhibitor suramin (10 uM), or varying doses (10, 1, 0.1 μM) of drug and incubated for 16 h. Phase contrast images were taken from multiple locations in each well (8/well) on an inverted microscope and tube formation parameters quantified using Image J software (NIH).

Ptch1 in C3Hs = assay: Down-regulation of Ptch1 in C3H10T1/2 cells; format: cell-based, mouse
Source text: For this assay, the wild-type and D477G Smo constructs will be transiently transfected into C3H10T1/2 cells and inhibition of pathway signaling assessed as previously described.

BCRP = target: T1, BCRP (Homo sapiens, UniProt Q9UNQ0); settings: read-out: IC50 BCRP inhibition; cited from earlier work
T1 construct: expressed in transfected cells; host or cells: Madin Darby canine kidney cells (MDCK)
T1 sequence (Q9UNQ0 1-655): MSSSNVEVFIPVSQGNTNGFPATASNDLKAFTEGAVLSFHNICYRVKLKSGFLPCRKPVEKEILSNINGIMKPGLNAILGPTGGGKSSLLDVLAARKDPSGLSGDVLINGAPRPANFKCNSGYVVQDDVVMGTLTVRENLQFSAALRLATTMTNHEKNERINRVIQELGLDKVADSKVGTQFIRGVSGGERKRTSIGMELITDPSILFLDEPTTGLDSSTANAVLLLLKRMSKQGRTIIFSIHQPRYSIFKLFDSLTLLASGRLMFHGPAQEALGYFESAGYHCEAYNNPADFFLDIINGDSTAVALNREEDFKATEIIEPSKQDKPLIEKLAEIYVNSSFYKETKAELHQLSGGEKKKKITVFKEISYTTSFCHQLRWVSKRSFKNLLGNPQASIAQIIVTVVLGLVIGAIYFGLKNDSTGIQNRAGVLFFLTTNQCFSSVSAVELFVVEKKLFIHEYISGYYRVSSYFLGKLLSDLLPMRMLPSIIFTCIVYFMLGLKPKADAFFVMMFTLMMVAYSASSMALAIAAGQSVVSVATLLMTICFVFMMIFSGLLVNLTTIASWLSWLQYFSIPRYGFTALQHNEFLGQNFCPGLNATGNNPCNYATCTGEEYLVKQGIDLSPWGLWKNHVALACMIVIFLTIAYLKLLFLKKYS

angiogenesis = settings: background; cited from earlier work
[2] = system: Hh signaling (Gli1 mRNA) in C3H10T1/2 cells; assay: Down-regulation of endogenous Gli1 mRNA in Hh-dependent C3H10T1/2 cells; format: cell-based, mouse; settings: Mus musculus
Outline: (§1)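 Hh pathway activated in C3H10T1/2 cells with exogenous agonist (recombinant Hh ligand or small molecule) alongside inhibitor; Gli1 mRNA measured by qPCR. Concentration-dependent Gli1 reduction also assessed in murine BCC ASZ cells; values mean±SEM, ≥2 experiments in triplicate.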

[3] = system: Hh signaling (Gli1 mRNA) in ASZ cells; assay: Down-regulation of endogenous Gli1 mRNA in ASZ cells; format: cell-based, murine; settings: Mus musculus
Outline: as §1

Gli1 in M2s = assay: Down-regulation of Gli1 in M2s; format: cell-based
Source text: (§2) Additional analogues have been synthesized and characterized in the assays described above.

[4] = system: Gli1 in DAOYs (cultured MB); assay: Down-regulation of Gli1 in DAOY cells; format: cell-based; settings: Homo sapiens
Source text: as §2

[5] = C3H 10T1/2, read-out: Hh inhibition

Question: For `CCC(C)n1ncn(-c2ccc(N3CCN(c4ccc(OCC5COC(Cn6cncn6)(c6ccc(Cl)cc6Cl)O5)cc4)CC3)cc2)c1=O` (centres unmarked) [ITZ, itraconazole, reference compound], which IC50 [1] is on record?
Answer: 0.39 ± 0.06 µM

Question: What about the “inhibition of tube formation” value (tube formation in HUVECs; 1 μM, 16 h) of the same compound?
Answer: significant inhibition

Question: And the “inhibition of tube formation (overall tube length and total tube junctions)” value (tube formation in HUVECs; 10 μM, 16 h)?
Answer: comparable to that of the positive control suramin

Question: And the “inhibition of tube formation” value (tube formation in HUVECs; 0.1 and 1 μM, 24 hour)?
Answer: significantly inhibited tube formation

Question: And the IC50 (Ptch1 in C3Hs)?
Answer: 0.33 µM

Question: And the IC50 (Ptch1 in C3Hs; Mus musculus, C3H 10T1/2)?
Answer: 0.2 µM

Question: What about the IC50 (BCRP) of the same compound?
Answer: ~1000 nM

Question: And the IC50 (angiogenesis)?
Answer: 160 nM

Question: What about the IC50 ([2]; C3H 10T1/2, 24 h, read-out: IC50 (μM) C3H10T1/2, 24 hr incubation) of the same compound?
Answer: 0.074 µM

Question: What about the inhibition at 1 µM ([2]; C3H 10T1/2, read-out: % Hh inhibition) of the same compound?
Answer: 96%

Question: What about the inhibition at 0.5 µM [2, 5] of the same compound?
Answer: ~70%

Question: What about the inhibition at 1 µM [2, 5] of the same compound?
Answer: ~98%

Question: What about the IC50 ([2]; C3H 10T1/2, read-out: Hh pathway inhibition C3H10T1/2, down-regulation of endogenous Gli1 mRNA) of the same compound?
Answer: 0.074 ± 0.02 µM

Question: What about the IC50 ([2]; C3H 10T1/2, read-out: IC50 (μM) Gli1-C3Hs) of the same compound?
Answer: 0.07 ± 0.02 µM

Question: What about the IC50 ([2]; C3H 10T1/2, read-out: IC50 down-regulation of Gli1, C3H10T1/2 cells) of the same compound?
Answer: 0.074 µM

Question: And the IC50 ([3]; 48 h, read-out: IC50 (μM) ASZ, 48 hr incubation)?
Answer: 0.14 ± 0.02 µM

Question: What about the IC50 ([3]; read-out: Hh pathway inhibition ASZ, down-regulation of endogenous Gli1 mRNA) of the same compound?
Answer: 0.14 ± 0.02 µM

Question: What about the IC50 ([3]; read-out: IC50 (μM) Gli1-ASZs) of the same compound?
Answer: 0.14 ± 0.02 µM

Question: And the IC50 (Gli1 in M2s)?
Answer: 0.3 µM and 0.52 µM

Question: What about the IC50 [4] of the same compound?
Answer: 0.6 ± 0.08 µM
